Results: patent publication US9163040B2, “Substituted bisphenyl butanoic phosphonic acid derivatives as NEP inhibitors” (NOVARTIS AG, priority 2013, dated 2015)

Assays:
[1] = tested on: Aβ(1-40) peptide concentrations in cerebrospinal fluid; assay: Aβ model: CSF Aβ after oral dosing, related to plasma ANP increase by exposure-response regression; format: in vivo, rat; settings: rats, p.o.; for CSF Aβ (% vehicle control): 5 hr post-dosing; for fold higher % increases in CSF Aβ compared with Example 1: plasma ANP 200 to 240% of baseline
Experimental: The relative CNS and peripheral therapeutic activities of NEP inhibitors were evaluated in two nonclinical animal models. Compounds or their vehicle were administered orally to conscious rats, and either the increase in Aβ(1-40) peptide concentrations in cerebrospinal fluid (CSF; “Aβ model”) or the increase in plasma levels of the NEP substrate, atrial natriuretic peptide (ANP; “ANP potentiation model”) were determined. Thus, NEP inhibitors that elicit no or small increases in CSF Aβ at a given increase in plasma ANP may have an advantage over ones that trigger large elevations in Aβ.
CNS effects of NEP inhibitors were assessed in a different rat model (“Aβ model”). In this study, we have measured cerebrospinal fluid (CSF) levels of Aβ as a sensitive indicator of CNS Aβ concentrations (Kwasi G. Mawuenyega, 2010, Science, Vol 330, 1774)).
Experiments were conducted in naïve adult, male, WH rats purchased from Charles River Labs (body weights: 495±53 g, mean±SD; age: 8.5-12 months) that were housed and fed as described above. Rats were treated by oral gavage with 1 mL/kg of vehicle (0.5% methylcellulose+0.1% Tween 80) or a selected dose of NEP inhibitor between 7:30 and 10:00 am. Five hours later, rats were anesthetized with isoflurane, a laparotomy was performed, and an abdominal aortic blood sample was obtained on EDTA. Blood samples were centrifuged at 4° C. and 20 K g to separate plasma. Plasma samples were aliquoted and frozen (−70° C.) for later analysis of plasma compound levels. After exsanguination of the rat, the skin and muscle overlying the cisterna magna were retracted. A sample of CSF was collected by direct needle puncture through the exposed dura into the cisterna magna. CSF was transferred to pre-chilled (on ice) low-binding tubes (Protein LoBind tubes, 1.5 mL, Order No. 022431081, Eppendorf) using low-binding pipette tips (VWR Catalog #37001-164) as quickly as possible to minimize Aβ aggregation and adherence to the devices. CSF samples were frozen (−70° C.) for later analysis of Aβ levels
Aβ40 in CSF was quantified using the MesoScale Discovery (MSD, Gaithersburg, Md.) 96-well MULTI-ARRAY Human/Rodent (4G8) Aβ40 Ultra-Sensitive Kit (K110FTE-2). The assay was done according to the manufacturer's instructions except for the standard curve and the sample preparation. A-10 μL aliquot of each CSF sample was mixed with 190 μL 1% BSA/1× Tris solution (“Blocker A” from kit) for a 1:20 CSF dilution. Synthetic Aβ1-40 peptide (from kit) was serially diluted in 1% BSA/1× Tris solution to obtain standards from 10,000-10 pg/mL for an 8-point standard curve.
MSD MULTI-SPOT Aβ40 peptide plates from the kit were incubated for 1 hour after pipetting 150 μL/well 1% BSA/1× Tris solution. The plates were washed 3 times with 400 μL 1× Tris wash buffer (from kit) using a BioTek EL406 automated plate washer (Winooski, Vt.). For CSF samples and standards, 25 μL of a 1×SULFO-TAG 4G8 detection antibody/1× “Blocker G”/1% BSA/1× Tris solution (“detection antibody solution” from kit) was pipetted into the plate. CSF samples and standards were pipetted at 25 μL/well into the plates immediately following detection antibody solution additions. The plates were incubated for 2 hours and washed 3 times with 400 μL 1× Tris wash buffer using the EL406 automated plate washer. “Read buffer T” (from kit), 1×150 μL/well, was pipetted into the plates. The MSD plates were read immediately on the MSD SECTOR Imager 6000 reader.
Standards were assayed in triplicate. CSF samples were assayed in duplicate. Curve fitting, back-calculation, % recovery, and interpolation of sample concentrations were performed using MSD DISCOVERY WORKBENCH Data Analysis Tools 3.0 Software. Signal generated by the standards was plotted and fit using the 4-parameter logistical curve fitting option with a 1/y^2 weighting function. Sample pg/mL concentrations were interpolated from the fit curve. […]

[2] = target: recombinant human neutral endopeptidase (Homo sapiens (Human), UniProt P08473); assay: in vitro inhibition of recombinant human neutral endopeptidase (fluorescence lifetime assay); format: biochemical; settings: 1 hour pre-incubation, read after 1 hour at room temperature, pH 7.4; read-out: Human NEP IC50
Sequence of recombinant human neutral endopeptidase (P08473 whole entry): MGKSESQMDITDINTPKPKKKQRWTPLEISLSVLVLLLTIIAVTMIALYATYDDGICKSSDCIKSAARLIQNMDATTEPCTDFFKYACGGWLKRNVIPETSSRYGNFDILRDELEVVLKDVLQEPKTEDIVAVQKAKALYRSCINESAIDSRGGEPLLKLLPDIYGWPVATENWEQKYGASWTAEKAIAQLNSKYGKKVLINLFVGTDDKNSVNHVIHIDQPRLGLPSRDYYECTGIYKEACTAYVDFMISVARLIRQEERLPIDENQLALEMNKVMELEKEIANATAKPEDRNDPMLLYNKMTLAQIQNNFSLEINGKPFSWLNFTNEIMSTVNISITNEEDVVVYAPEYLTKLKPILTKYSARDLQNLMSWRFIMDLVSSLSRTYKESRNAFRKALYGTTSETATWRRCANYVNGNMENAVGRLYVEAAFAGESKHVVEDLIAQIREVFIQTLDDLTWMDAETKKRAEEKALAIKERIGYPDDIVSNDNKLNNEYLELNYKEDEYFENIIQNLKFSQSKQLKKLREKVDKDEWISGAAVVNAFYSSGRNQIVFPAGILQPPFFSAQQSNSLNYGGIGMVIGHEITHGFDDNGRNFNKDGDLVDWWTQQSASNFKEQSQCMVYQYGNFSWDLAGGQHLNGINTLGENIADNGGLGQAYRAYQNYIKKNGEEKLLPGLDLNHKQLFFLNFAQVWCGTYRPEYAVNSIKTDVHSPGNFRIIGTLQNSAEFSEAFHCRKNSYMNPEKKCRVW
Excerpt: The activity of a compound according to the present invention can be assessed by the following in vitro and in vivo methods and/or by the following in vitro and in vivo methods well-described in the art. See Doering K, Meder G, Hinnenberger M, Woelcke J, Mayr L M, Hassiepen U, (2009) “A fluorescence lifetime-based assay for protease inhibitor profiling on human kallikrein 7”, Biomol Screen, January; 14(1):1-9.
In particular, the in vitro inhibition of recombinant human neutral endopeptidase can be determined as follows:
Recombinant human neutral endopeptidase (expressed in insect cells and purified using standard methods, final concentration 7 pM) is pre-incubated with test compounds at various concentrations for 1 hour at room temperature in 10 mM sodium phosphate buffer at pH 7.4, containing 150 mM NaCl and 0.05% (w/v) CHAPS. The enzymatic reaction is started by the addition of a synthetic peptide substrate Cys(PT14)-Arg-Arg-Leu-Trp-OH to a final concentration of 0.7 μM. Substrate hydrolysis leads to an increase in fluorescence lifetime (FLT) of PT14 measured by means of a FLT reader as described by Doering et al. (2009) as referenced supra. The effect of the compound on the enzymatic activity was determined after 1 hour (t=60 min) incubation at room temperature. […]

[3] = at plasma compound concentration corresponding to plasma ANP 200 % baseline
[4] = at plasma compound concentration corresponding to plasma ANP 210 % baseline
[5] = at plasma compound concentration corresponding to plasma ANP 220 % baseline
[6] = at plasma compound concentration corresponding to plasma ANP 230 % baseline
[7] = at plasma compound concentration corresponding to plasma ANP 240 % baseline

IC50 [2] [pM] | SMILES | CSF Aβ (% vehicle control) [1, 3] [% vehicle control] | CSF Aβ (% vehicle control) [1, 4] [% vehicle control] | CSF Aβ (% vehicle control) [1, 5] [% vehicle control] | CSF Aβ (% vehicle control) [1, 6] [% vehicle control] | CSF Aβ (% vehicle control) [1, 7] [% vehicle control] | fold higher % increases in CSF Aβ compared with Example 1 [1]
– | CCOC(=O)C[C@@H](Cc1ccc(-c2cccc(Cl)c2)cc1)NC(=O)CCC(=O)O [Example 1-2 (WO2010/136493)] | 225 | 242 | 260 | 211 | 295 | 5- to 9 fold
– | CCOC(=O)C[C@@H](Cc1ccc(-c2cc(Cl)ccc2F)cc1)NC(=O)CCC(=O)O [Example 1-17 (WO2010/136493)] | 156 | 179 | 202 | 225 | 248 | 4 fold
– | CC(OC(=O)C[C@@H](Cc1ccc(-c2cc(Cl)ccc2F)cc1)NC(=O)CCP(=O)(O)O)OC(=O)OC1CCCCC1 (stereo partly drawn) [Example 1] | 114 | 120 | 126 | 132 | 139 | –
110 | O=C(O)C[C@@H](Cc1ccc(-c2cc(Cl)ccc2F)cc1)NC(=O)CCP(=O)(O)O [Example 2, (R)-4-(5′-chloro-2′-fluoro-[1,1′-biphenyl]-4-yl)-3-(3-phosphonopropanamido)butanoic acid] | – | – | – | – | – | –
